In US8933230B2, “Phosphorus-containing group-substituted quinoline, its preparation process, medical composition containing the compounds and application” (priority 2011, dated 2015):

Tests used:
Assay in all cases: KinomeScan kinase panel
Type in all cases: binding
CSNK1E = molecular target: T1, CSNK1E (Homo sapiens, UniProt P49674)
T1 construct: purchased DiscoveRx Corporation (KinomeScan)
Outline: (§1)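 Each kinase in a 442-kinase KinomeScan set is assayed with compound present at 1000 nM, and percentage-type inhibition at that level is given.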

JNK1 = molecular target: T2, JNK1 (Homo sapiens, UniProt P45983)
T2 construct: purchased DiscoveRx Corporation (KinomeScan)
Outline: as §1

CAMK2A = molecular target: T3, CAMK2A (Homo sapiens, UniProt Q9UQM7)
T3 construct: purchased DiscoveRx Corporation (KinomeScan)
T3 sequence (Q9UQM7 whole entry): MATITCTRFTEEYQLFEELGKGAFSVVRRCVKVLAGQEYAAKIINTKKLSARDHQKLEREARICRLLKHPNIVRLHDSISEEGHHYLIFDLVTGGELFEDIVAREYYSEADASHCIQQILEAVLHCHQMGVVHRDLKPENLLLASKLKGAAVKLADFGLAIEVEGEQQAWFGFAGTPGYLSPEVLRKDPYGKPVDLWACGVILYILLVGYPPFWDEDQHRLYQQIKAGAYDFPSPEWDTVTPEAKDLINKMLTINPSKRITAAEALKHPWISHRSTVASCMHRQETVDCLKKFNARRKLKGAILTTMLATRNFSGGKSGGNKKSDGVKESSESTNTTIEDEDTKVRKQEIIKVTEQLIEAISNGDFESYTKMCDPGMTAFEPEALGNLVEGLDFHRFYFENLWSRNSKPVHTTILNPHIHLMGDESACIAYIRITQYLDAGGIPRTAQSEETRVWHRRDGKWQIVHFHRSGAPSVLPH
Outline: as §1

FYN = molecular target: T4, FYN (Homo sapiens, UniProt P06241)
T4 construct: purchased DiscoveRx Corporation (KinomeScan)
Outline: as §1

PFTAIRE2 = molecular target: T5, PFTAIRE2 (Homo sapiens, UniProt Q96Q40)
T5 construct: purchased DiscoveRx Corporation (KinomeScan)
T5 sequence (Q96Q40 whole entry): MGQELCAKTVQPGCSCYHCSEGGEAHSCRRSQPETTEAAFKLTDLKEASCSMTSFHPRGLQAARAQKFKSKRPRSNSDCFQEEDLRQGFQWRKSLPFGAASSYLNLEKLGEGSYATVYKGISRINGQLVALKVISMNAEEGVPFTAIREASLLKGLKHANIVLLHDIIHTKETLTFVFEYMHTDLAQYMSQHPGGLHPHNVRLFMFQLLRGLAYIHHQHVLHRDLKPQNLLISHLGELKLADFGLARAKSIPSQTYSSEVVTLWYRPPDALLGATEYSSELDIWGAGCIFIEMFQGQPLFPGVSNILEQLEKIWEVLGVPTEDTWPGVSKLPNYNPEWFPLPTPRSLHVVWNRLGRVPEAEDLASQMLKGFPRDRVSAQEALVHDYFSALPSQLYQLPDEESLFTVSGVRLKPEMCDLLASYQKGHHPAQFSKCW
Outline: as §1

EGFR(G719C) = molecular target: T6, EGFR(G719C) (Homo sapiens, UniProt P00533, G719C)
T6 construct: purchased DiscoveRx Corporation (KinomeScan)
Outline: as §1

MET(Y1235D) = molecular target: T7, MET(Y1235D) (Homo sapiens, UniProt P08581, Y1235D)
T7 construct: purchased DiscoveRx Corporation (KinomeScan)
Outline: as §1

MARK3 = molecular target: T8, MARK3 (Homo sapiens, UniProt P27448)
T8 construct: purchased DiscoveRx Corporation (KinomeScan)
Outline: as §1

GRK1 = molecular target: T9, GRK1 (Homo sapiens, UniProt Q15835)
T9 construct: purchased DiscoveRx Corporation (KinomeScan)
Outline: as §1

KIT(V559D, V654A) = molecular target: T10, KIT(V559D, V654A) (Homo sapiens, UniProt P10721, V559D/V654A)
T10 construct: purchased DiscoveRx Corporation (KinomeScan)
Outline: as §1

NEK3 = molecular target: T11, NEK3 (Homo sapiens, UniProt P51956)
T11 construct: purchased DiscoveRx Corporation (KinomeScan panel)
Outline: as §1

PIK3CA = molecular target: T12, PIK3CA (Homo sapiens, UniProt P42336)
T12 construct: purchased DiscoveRx Corporation (KinomeScan)
T12 sequence (P42336 whole entry): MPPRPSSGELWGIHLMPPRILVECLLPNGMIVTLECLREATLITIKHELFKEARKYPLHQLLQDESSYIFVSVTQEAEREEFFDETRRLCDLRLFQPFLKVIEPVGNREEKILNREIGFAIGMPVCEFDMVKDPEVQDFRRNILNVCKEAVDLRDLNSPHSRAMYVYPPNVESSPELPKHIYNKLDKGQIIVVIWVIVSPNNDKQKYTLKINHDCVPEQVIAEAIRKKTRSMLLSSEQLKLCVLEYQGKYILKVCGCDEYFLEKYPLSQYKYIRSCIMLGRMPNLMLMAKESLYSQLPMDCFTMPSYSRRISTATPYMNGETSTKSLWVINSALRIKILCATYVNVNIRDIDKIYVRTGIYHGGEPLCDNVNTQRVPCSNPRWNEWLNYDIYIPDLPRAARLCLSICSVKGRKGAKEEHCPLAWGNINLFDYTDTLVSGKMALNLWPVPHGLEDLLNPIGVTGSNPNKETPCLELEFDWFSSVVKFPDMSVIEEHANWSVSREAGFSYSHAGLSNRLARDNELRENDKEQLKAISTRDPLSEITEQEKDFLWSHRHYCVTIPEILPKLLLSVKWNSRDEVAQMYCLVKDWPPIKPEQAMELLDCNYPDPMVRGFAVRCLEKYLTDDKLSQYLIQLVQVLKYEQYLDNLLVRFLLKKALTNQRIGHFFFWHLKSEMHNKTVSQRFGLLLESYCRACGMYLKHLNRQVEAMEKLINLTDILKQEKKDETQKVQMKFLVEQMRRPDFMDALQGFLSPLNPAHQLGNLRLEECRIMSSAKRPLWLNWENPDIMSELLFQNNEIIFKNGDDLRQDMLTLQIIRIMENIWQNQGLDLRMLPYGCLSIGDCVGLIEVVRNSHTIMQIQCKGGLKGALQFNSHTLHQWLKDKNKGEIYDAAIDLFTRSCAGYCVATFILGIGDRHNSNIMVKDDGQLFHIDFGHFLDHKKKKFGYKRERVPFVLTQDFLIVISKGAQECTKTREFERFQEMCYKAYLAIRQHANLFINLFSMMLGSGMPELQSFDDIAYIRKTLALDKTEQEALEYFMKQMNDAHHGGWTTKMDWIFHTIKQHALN
Outline: as §1

GRK4 = molecular target: T13, GRK4 (Homo sapiens, UniProt P32298)
T13 construct: purchased DiscoveRx Corporation (KinomeScan)
Outline: as §1

PAK2 = molecular target: T14, PAK2 (Homo sapiens, UniProt Q13177)
T14 construct: purchased DiscoveRx Corporation (KinomeScan panel)
Outline: as §1

PHKG2 = molecular target: T15, PHKG2 (Homo sapiens, UniProt P15735)
T15 construct: purchased DiscoveRx Corporation (KinomeScan)
Outline: as §1

MELK = molecular target: T16, MELK (Homo sapiens, UniProt Q14680)
T16 construct: purchased DiscoveRx Corporation (KinomeScan)
Outline: as §1

MYO3B = molecular target: T17, MYO3B (Homo sapiens, UniProt Q8WXR4)
T17 construct: purchased DiscoveRx Corporation (KinomeScan)
T17 sequence (Q8WXR4 whole entry): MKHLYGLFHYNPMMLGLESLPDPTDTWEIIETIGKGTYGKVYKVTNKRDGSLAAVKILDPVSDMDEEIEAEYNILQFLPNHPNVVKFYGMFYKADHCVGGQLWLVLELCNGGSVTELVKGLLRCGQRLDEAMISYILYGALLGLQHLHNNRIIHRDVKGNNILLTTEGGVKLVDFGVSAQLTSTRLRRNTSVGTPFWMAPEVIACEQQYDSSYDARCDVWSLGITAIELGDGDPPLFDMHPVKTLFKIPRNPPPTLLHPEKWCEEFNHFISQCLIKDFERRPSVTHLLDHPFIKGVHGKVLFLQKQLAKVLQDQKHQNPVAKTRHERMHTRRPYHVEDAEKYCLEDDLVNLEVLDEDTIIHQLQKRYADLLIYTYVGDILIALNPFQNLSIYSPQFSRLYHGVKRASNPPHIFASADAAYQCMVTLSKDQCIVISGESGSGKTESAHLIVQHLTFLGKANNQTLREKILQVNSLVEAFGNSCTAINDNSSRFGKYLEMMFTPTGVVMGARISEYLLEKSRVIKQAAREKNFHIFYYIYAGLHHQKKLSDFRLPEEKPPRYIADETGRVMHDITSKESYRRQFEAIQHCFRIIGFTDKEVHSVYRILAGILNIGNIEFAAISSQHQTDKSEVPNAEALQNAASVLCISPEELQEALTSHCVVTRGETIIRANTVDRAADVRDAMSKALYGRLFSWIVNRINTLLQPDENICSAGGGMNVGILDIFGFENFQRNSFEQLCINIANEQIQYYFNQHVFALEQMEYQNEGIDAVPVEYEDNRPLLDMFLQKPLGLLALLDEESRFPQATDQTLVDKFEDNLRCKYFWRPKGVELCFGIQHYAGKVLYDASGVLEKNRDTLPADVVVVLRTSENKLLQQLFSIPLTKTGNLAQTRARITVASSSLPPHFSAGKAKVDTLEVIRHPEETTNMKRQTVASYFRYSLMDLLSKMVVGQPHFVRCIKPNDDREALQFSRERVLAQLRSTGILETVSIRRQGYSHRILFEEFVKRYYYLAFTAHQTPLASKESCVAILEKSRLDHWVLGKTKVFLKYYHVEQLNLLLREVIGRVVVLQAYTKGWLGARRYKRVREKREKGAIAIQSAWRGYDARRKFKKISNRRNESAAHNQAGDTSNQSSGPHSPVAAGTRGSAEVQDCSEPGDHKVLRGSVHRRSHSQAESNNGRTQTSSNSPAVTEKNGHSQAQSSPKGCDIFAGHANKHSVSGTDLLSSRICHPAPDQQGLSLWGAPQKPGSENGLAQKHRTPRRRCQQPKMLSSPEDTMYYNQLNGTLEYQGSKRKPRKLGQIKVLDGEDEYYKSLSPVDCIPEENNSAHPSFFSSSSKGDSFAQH
Outline: as §1

MAP4K3 = molecular target: T18, MAP4K3 (Homo sapiens, UniProt Q8IVH8)
T18 construct: purchased DiscoveRx Corporation (KinomeScan)
T18 sequence (Q8IVH8 whole entry): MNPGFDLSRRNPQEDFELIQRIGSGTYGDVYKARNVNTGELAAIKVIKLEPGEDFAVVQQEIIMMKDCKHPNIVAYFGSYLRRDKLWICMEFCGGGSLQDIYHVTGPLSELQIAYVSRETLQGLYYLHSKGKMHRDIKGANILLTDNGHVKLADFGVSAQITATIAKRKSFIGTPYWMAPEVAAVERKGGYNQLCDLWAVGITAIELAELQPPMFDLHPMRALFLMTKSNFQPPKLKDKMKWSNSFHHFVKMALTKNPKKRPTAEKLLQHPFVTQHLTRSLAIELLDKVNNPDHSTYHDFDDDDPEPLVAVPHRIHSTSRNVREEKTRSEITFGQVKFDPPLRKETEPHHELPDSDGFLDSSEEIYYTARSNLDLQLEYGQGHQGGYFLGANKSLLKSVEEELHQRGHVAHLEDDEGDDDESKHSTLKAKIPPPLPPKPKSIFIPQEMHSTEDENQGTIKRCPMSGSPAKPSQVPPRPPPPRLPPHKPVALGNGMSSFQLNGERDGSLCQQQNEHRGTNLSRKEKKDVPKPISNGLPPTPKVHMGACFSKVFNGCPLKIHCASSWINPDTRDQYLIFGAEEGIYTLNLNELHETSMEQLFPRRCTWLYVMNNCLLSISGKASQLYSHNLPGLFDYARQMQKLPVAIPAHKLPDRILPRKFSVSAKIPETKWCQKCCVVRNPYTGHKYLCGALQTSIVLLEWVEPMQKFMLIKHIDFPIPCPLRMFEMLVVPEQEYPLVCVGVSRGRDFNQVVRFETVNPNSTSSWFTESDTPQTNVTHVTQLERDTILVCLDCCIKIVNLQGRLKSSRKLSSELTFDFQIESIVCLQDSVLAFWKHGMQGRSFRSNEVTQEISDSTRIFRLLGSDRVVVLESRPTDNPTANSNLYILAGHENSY
Outline: as §1

PAK6 = molecular target: T19, PAK6 (Homo sapiens, UniProt Q9NQU5)
T19 construct: purchased DiscoveRx Corporation (KinomeScan panel)
Outline: as §1

[1] = molecular target: T20, RPS6KA4(kin.Dom.1-N-termimal) (Homo sapiens, UniProt O75676)
T20 construct: kin.Dom.1; purchased DiscoveRx Corporation
Outline: as §1

PCTK1 = molecular target: T21, PCTK1 (Homo sapiens, UniProt Q00536)
T21 construct: purchased DiscoveRx Corporation (KinomeScan panel)
Outline: as §1

EPHA5 = molecular target: T22, EPHA5 (Homo sapiens, UniProt P54756)
T22 construct: purchased DiscoveRx Corporation (KinomeScan)
Outline: as §1

LATS2 = molecular target: T23, LATS2 (Homo sapiens, UniProt Q9NRM7)
T23 construct: purchased DiscoveRx Corporation (KinomeScan)
Outline: as §1

ACVR1 = molecular target: T24, ACVR1 (Homo sapiens, UniProt Q04771)
T24 construct: purchased DiscoveRx Corporation (KinomeScan)
Outline: as §1

CTK = molecular target: T25, CTK (Homo sapiens, UniProt P42679)
T25 construct: purchased DiscoveRx Corporation (KinomeScan)
Outline: as §1

ICK = molecular target: T26, ICK (Homo sapiens, UniProt Q9UPZ9)
T26 construct: purchased DiscoveRx Corporation (KinomeScan)
Outline: as §1

PIM1 = molecular target: T27, PIM1 (Homo sapiens, UniProt P11309)
T27 construct: purchased DiscoveRx Corporation (KinomeScan)
T27 sequence (P11309 whole entry): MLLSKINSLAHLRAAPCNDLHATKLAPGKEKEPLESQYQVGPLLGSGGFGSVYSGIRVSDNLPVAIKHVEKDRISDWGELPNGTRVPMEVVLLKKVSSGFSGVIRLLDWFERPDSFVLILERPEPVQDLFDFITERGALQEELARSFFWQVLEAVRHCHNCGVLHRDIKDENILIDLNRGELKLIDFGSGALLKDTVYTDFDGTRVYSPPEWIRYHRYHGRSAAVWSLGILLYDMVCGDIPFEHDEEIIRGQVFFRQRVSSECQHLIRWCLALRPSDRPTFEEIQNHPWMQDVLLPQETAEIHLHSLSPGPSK
Outline: as §1

CDKL5 = molecular target: T28, CDKL5 (Homo sapiens, UniProt O76039)
T28 construct: purchased DiscoveRx Corporation (KinomeScan)
Outline: as §1

RET (V804L) = molecular target: T29, RET (V804L) (Homo sapiens, UniProt P07949, V804L)
T29 construct: purchased DiscoveRx Corporation
Outline: as §1

FES = molecular target: T30, FES (Homo sapiens, UniProt P07332)
T30 construct: purchased DiscoveRx Corporation (KinomeScan)
Outline: as §1

[2] = molecular target: T31, JAK2(JH1domain-catalytic) (Homo sapiens, UniProt O60674)
T31 construct: JAK2(JH1domain-catalytic); purchased DiscoveRx Corporation (KinomeScan)
T31 sequence (O60674 849-1124 limits assumed): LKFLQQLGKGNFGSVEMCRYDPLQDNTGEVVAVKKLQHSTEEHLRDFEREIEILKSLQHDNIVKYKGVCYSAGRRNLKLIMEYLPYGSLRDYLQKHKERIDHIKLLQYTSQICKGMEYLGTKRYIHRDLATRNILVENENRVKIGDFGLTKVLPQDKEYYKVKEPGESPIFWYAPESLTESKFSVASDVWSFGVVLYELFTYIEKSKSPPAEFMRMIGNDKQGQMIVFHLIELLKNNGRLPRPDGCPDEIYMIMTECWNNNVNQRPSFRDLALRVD
Outline: as §1

DDR1 = molecular target: T32, DDR1 (Homo sapiens, UniProt Q08345)
T32 construct: purchased DiscoveRx Corporation (KinomeScan)
Outline: as §1

TRAK = molecular target: T33, TRAK (Homo sapiens, UniProt P04629)
T33 construct: purchased DiscoveRx Corporation (KinomeScan)
Outline: as §1

PLK1 = molecular target: T34, PLK1 (Homo sapiens, UniProt P53350)
T34 construct: purchased DiscoveRx Corporation (KinomeScan)
Outline: as §1

FLT3(N841L) = test system: FLT3(N841L)
Outline: as §1

Structure (SMILES): CCOP(=O)(CN1CCC(COc2cc3nccc(Oc4ccc(NC(=O)C5(C(=O)Nc6ccc(F)cc6)CC5)cc4F)c3cc2OC)CC1)OCC [Example 10, N1-[4-[[7-[[1-(diethoxyphosphorylmethyl)-4-piperidinyl]methoxyl]-6-methoxyl-4-quinolyl]oxyl]-3-fluorophenyl]-N1′-(4-fluorophenyl)cyclopropane-1,1-dicarboxamide]
- % Ctrl@1000 nM (CSNK1E): 100 % Ctrl
- % Ctrl@1000 nM (JNK1): 80 % Ctrl
- % Ctrl@1000 nM (CAMK2A): 100 % Ctrl
- % Ctrl@1000 nM (FYN): 48 % Ctrl
- % Ctrl@1000 nM (PFTAIRE2): 87 % Ctrl
- % Ctrl@1000 nM (EGFR(G719C)): 75 % Ctrl
- % Ctrl@1000 nM (MET(Y1235D)): 4.4 % Ctrl
- % Ctrl@1000 nM (MARK3): 100 % Ctrl
- % Ctrl@1000 nM (GRK1): 100 % Ctrl
- % Ctrl@1000 nM (KIT(V559D, V654A)): 4.1 % Ctrl
- % Ctrl@1000 nM (NEK3): 58 % Ctrl
- % Ctrl@1000 nM (PIK3CA): 100 % Ctrl
- % Ctrl@1000 nM (GRK4): 78 % Ctrl
- % Ctrl@1000 nM (PAK2): 54 % Ctrl
- % Ctrl@1000 nM (PHKG2): 96 % Ctrl
- % Ctrl@1000 nM (MELK): 29 % Ctrl
- % Ctrl@1000 nM (MYO3B): 100 % Ctrl
- % Ctrl@1000 nM (MAP4K3): 20 % Ctrl
- % Ctrl@1000 nM (PAK6): 87 % Ctrl
- % Ctrl@1000 nM [1]: 76 % Ctrl
- % Ctrl@1000 nM (PCTK1): 100 % Ctrl
- % Ctrl@1000 nM (EPHA5): 3.5 % Ctrl
- % Ctrl@1000 nM (LATS2): 96 % Ctrl
- % Ctrl@1000 nM (ACVR1): 100 % Ctrl
- % Ctrl@1000 nM (CTK): 100 % Ctrl
- % Ctrl@1000 nM (ICK): 95 % Ctrl
- % Ctrl@1000 nM (PIM1): 96 % Ctrl
- % Ctrl@1000 nM (CDKL5): 100 % Ctrl
- % Ctrl@1000 nM (RET (V804L)): 0.35 % Ctrl
- % Ctrl@1000 nM (FES): 44 % Ctrl
- % Ctrl@1000 nM [2]: 100 % Ctrl
- % Ctrl@1000 nM (DDR1): 0 % Ctrl
- % Ctrl@1000 nM (TRAK): 1.8 % Ctrl
- % Ctrl@1000 nM (PLK1): 100 % Ctrl
- % Ctrl@1000 nM (FLT3(N841L)): 0 % Ctrl
